According to patent US6458838B1, “Adrenoleukodystrophy treatments” (Johns Hopkins University, priority 1999, dated 2002):
Values joined by “and” are separate entries in the source; they are usually repeats but may differ in a detail not shown here. Identical values can stand only once. “Also recorded” adds a separate entry of the source.

What was measured:
X-ALD mice = experiment: In vivo efficacy: VLCFA levels in brain and adrenal glands after dietary 4-PBA; set-up: species or system mouse
Experimental: To measure the in vivo efficacy of 4-PBA, we supplemented mouse chow and water with 4-PBA.
AMN and Addison-only. […] In vivo delivery of 4-PBA to X-ALD mice. 4-PBA was delivered to X-ALD mice in their regular chow and water. 4-PBA chow was prepared by B'OServ (Holton Industries, Frenchtown, N.J.). […] Brains and adrenal glands from normal LD and X-ALD/4-PBA mice were collected for VLCFA analysis as described.
(§1) Biochemical measurements. […] For VLCFA measurements, total lipids were extracted, converted to methyl esters, purified by TLC and subjected to capillary GC analysis as described. Duplicate assays were set up independently and were assayed on different days. C24:0 β-oxidation activity of human and mouse fibroblasts and human lymphoblastoid cells was determined by measuring their capacity to degrade [1-^14C]-C24:0 fatty acid (American Radiolabeled Chemicals, St Louis, Mo.) to water-soluble products as described. Phytanic acid oxidation was measured as described. Cells were incubated with [2,3-^3H]-phytanic acid for 24 hours, and the release of ^3H-H2O to the aqueous medium was determined (activity in pmol/hr per mg protein).

ALDRP = experiment: Western blot with densitometry relative to β-actin; assay type: cell-based; settings: normal mouse fibroblasts, after 10 days of exposure; data not shown
Description: Open bars, untreated cells; hatched bars, treated cells.
These findings indicate that ALDP1 and ALDRP may occupy equivalent domains within the peroxisomal membrane. This would agree with the observation that ALDP and ALDRP are generally expressed in different cell types.
Western blot analysis. Tissue culture cells were scraped from tissue culture dishes using a policeman, into cold PBS solution and protease inhibitor cocktail (Boehringer). Samples were mixed (1:1) with 2× sample buffer. Total protein samples were fractionated by SDS-PAGE using a 7.5% gel using the method of Laemmlis'. […] Enhanced chemiluminescence (SuperSignal Substrate; Pierce, Rockford, Ill.) was used to detect bound antibody.

PMP70 = experiment: Semi-quantitative RT-PCR in primary fibroblasts; assay type: cell-based, mouse; settings: X-ALD or normal primary fibroblasts, 5 mM 4-PBA for 2 days
Experimental: (§2) Semi-quantitative RT-PCR was done on the mRNA isolated from these cells (FIG. 1). […] In addition, the expression of acyl-CoA oxidase (AOX), the rate-limiting enzyme in VLCFA β-oxidation, was not affected. Although previous studies have reported that ALDR mRNA was not detectable in fibroblasts by either northern or RT-PCR analyses, those RT-PCR studies used about 66 ng of CDNA; we used about 250 ng of cDNA.
(§3) Semi-quantitative RT-PCR analysis. Total RNA from tissue culture cells (10^6-10^7 cells/sample) was isolated using TRizol Reagent™ (Life Technologies), treated with DNase I (100-200 units in 40 mM HCI, 10 mM NaCl, 6 mM MgCl2, pH 7.3), incubated at 37° C. for 30 min, extracted with phenol/chloroform, and precipitated with isopropanol. cDNA was generated using MMLV reverse transcriptase (RT) (Life Technologies). PCR was done in the linear range of amplification (determined for each primerpair-cDNA combination). For each cDNA sample, a ‘cocktail’ was prepared, containing PCR buffer (Promega), 200 µM of each DNTP, 1.5 mM MgCl2, 250 ng cDNA, 0.25 U of Taq polymerase (Promega) and […]. The ‘cocktail’ was divided into separate tubes containing cDNA specific primers.
(§4) Primers. The PCR primers used are listed below. In the parentheses, h indicates human and m, mouse; this is followed by the gene name, product size and annealing temperature. […]

ALDP = experiment: Semi-quantitative RT-PCR in primary fibroblasts; assay type: cell-based, mouse; settings: normal primary fibroblasts, 5 mM 4-PBA for 2 days
Experimental: as §2, §3, §4

[1] = tested on: X-ALD mouse primary fibroblasts; experiment: C24:0 β-oxidation activity ([1-14C]-C24:0 to water-soluble products); assay type: cell-based; settings: 5 mM 4PBA for 6 days
Experimental: Human Tibroblast C24:0 β-oxidation increased from 25% to 48% of normal; human lymphobfastoid cells, from 18% to 53% of normal; and mouse fibroblasts, from 15% to 29% of normal. […] There are several possible mechanisms that could account for the action of 4-PBA in X-ALD.
Cell culture and 4-PBA treatment. Cell lines derived from X-ALD patients and X-ALD mice were grown in MEM (fibroblasts) or RPMI (ymphoblastoid cells) supplemented with fetal calf serum (10%), penicillin (100 U/ml), streptomycin (100 U/mi) and glutamine (2 mM). […] Cells in the second flask were grown without drug for the same length of time and served as controls. The media were changed every 3-4 days.
as §1

[2] = tested on: human primary fibroblasts derived from X-ALD patients; experiment: VLCFA (C24:0, C26:0) levels in cultured cells, capillary GC; assay type: cell-based
Description: The genotypes of the X-ALD patients included missense, nonsense, frame shift and deletion mutations and all of the main clinical phenotypes.
After two days of treatment, a time-dependent reduction in VLCFA levels in human and mouse X-ALD cell lines was observed. In human lymphoblastoid cells and mouse fibroblasts, C24:0 and C26:0 levels were normalized within 10 days of treatment, In human X-ALD fibroblasts, C24:0 levels were normalized within 10 days, whereas C26:0 levels were reduced by 47% after 22 days. The results obtained were independent of genotype or phenotype.
Cell culture and 4-PBA treatment. Cell lines derived from X-ALD patients and X-ALD mice were grown in MEM (fibroblasts) or RPMI (ymphoblastoid cells) supplemented with fetal calf serum (10%), penicillin (100 U/ml), streptomycin (100 U/mi) and glutamine (2 mM). […]
Biochemical measurements. […] C24:0 β-oxidation activity of human and mouse fibroblasts and human lymphoblastoid cells was determined by measuring their capacity to degrade [1-^14C]-C24:0 fatty acid (American Radiolabeled Chemicals, St Louis, Mo.) to water-soluble products as described. Phytanic acid oxidation was measured as described. Cells were incubated with [2,3-^3H]-phytanic acid for 24 hours, and the release of ^3H-H2O to the aqueous medium was determined (activity in pmol/hr per mg protein).

In the case of O=C(O)CCCc1ccccc1 [4-PBA, 4-Phenyl butyrate], the “adrenal gland VLCFA (C24:0 and C26:0) levels” value (X-ALD mice; dietary 4-PBA for 4 weeks) is reported as “substantial reduction”, the “brain VLCFA (C24:0 and C26:0) levels” value (X-ALD mice; dietary 4-PBA for 4 weeks) is reported as “substantial reduction” and the “correction of brain C24:0 level” value (X-ALD mice; dietary 4-PBA for 6 weeks) is reported as “complete correction; also recorded: complete normalization”. The “correction of brain C26:0 level” value (X-ALD mice; dietary 4-PBA for 6 weeks) was 78% and 80%, the ALDRP protein level (ALDRP) was “not increased” and the PMP70 expression level (PMP70) was “little, if any, effect”. The “ALDP expression (mRNA)” value (ALDP) was “little, if any, effect”, the “C24:0 β-oxidation, Increase (treated vs untreated)” value [1] was 1.87 fold and the “C26:0 levels reduced by” value ([2]; 5 mM 4-PBA, after 22 days) was 47%. For the same compound, the “effect of concentration on VLCFA levels” value ([2]; between 1 mM and 5 mM 4-PBA, human X-ALD fibroblasts and lymphoblastoid cells, data not shown) was “dose-dependent decrease”.
